Here are results for 29 compounds from patent US20200131144A1, “AMINE OR (THIO)AMIDE CONTAINING LXR MODULATORS” (Phenex-FXR GmbH, priority 2017, published 2020).

The target in one assay is T1, LXRβ full length (FL) (Homo sapiens, UniProt P55055, INS174Q).
T1 construct: the full length (FL) proteins of LXRα (amino acids 1-447); NP005684; NP009052; expressed in transfected cells; host or cells: HEK293
T1 sequence (P55055 with tags, fused parts or gaps INS174Q): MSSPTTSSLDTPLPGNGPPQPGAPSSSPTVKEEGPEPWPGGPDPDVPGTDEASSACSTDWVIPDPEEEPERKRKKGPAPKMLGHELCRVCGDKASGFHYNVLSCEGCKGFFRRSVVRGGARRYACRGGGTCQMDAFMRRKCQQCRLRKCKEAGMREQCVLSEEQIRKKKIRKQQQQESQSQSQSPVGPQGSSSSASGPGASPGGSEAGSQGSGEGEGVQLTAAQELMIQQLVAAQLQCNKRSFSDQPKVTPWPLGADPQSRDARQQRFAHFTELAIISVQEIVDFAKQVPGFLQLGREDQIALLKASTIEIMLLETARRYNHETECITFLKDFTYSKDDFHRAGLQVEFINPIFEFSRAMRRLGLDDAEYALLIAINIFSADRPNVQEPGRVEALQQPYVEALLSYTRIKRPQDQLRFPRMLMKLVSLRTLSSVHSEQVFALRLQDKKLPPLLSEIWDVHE
The assay can be described thus: LXR Gal4 reporter transient transfection assay, mammalian two-hybrid, FL-M2H Gal4β. It is filed as cell-based. Particulars: HEK293 cells; inverse agonist unless *. The procedure, abridged:
(§1)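 HEK293 cells transiently cotransfected with NFkB-AD fusions of full-length or LBD LXRα/β, GAL4-DBD fusions of SRC1 coactivator or NCoR corepressor domains, GAL4-driven firefly luciferase and Renilla control. Compound added 4 h post-transfection (≤0.2% DMSO), 16 h incubation; firefly and Renilla luminescence read sequentially.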

In assay [1] the target is T2, GST-LXRβ ligand-binding domain (Homo sapiens, UniProt P55055, INS174Q).
T2 construct: amino acids 156-461; NP009052; made in house; host or cells: E. coli
T2 sequence (P55055 with tags, fused parts or gaps INS174Q limits assumed): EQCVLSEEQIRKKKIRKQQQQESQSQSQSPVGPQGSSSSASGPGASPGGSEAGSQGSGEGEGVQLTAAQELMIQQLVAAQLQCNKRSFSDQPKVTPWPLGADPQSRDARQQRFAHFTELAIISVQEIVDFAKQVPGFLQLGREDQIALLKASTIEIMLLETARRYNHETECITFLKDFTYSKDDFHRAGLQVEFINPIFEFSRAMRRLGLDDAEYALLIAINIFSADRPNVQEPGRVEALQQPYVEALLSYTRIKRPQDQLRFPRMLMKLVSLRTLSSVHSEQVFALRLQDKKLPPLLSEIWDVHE
Briefly: TR-FRETβ activity assay (NCoA3 coactivator peptide recruitment). Particulars: 1 μM 24(S)-25-epoxycholesterol as prestimulating agonist; inverse agonist unless *. It is filed as biochemical. The procedure, abridged: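 E. coli-expressed GST-LXRβ LBD (aa 156-461, 76 nM) with biotinylated NCoA3 peptide (400 nM), anti-GST-Tb cryptate donor and streptavidin-XL665 acceptor in 240 mM KCl, BSA, 0.002% Triton X-100. Equilibrated 1 h at 4° C; TR-FRET read at 615/665 nm, triplicates.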

The target in the next assay is T3, LXRα full length (FL) (Homo sapiens, UniProt Q13133).
T3 construct: the full length (FL) proteins of LXRα (amino acids 1-447); NP005684; expressed in transfected cells; host or cells: HEK293
T3 sequence (Q13133 1-447): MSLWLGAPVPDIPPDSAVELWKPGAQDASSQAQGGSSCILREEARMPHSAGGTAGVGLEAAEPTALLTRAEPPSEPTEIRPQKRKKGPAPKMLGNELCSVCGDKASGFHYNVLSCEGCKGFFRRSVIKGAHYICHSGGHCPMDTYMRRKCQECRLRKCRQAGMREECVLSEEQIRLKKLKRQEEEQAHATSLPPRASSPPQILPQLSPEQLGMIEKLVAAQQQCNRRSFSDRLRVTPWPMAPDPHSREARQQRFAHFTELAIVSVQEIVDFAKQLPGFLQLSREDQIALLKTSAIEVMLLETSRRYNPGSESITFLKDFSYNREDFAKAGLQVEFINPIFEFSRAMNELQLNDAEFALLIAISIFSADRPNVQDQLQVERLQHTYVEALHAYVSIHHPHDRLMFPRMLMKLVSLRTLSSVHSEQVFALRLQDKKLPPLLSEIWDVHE
The assay can be described thus: LXR Gal4 reporter transient transfection assay, mammalian two-hybrid, FL-M2H Gal4α. Format: cell-based. As to conditions: HEK293 cells; inverse agonist unless *. The procedure, abridged:
as §1

Take `Cc1nc2cccnc2c(C(=O)N(Cc2ccc(-c3cccc(C4(C(=O)O)CC4)c3)cc2)Cc2ccc(C(F)(F)F)o2)c1C` [27/112]: the values for the EC50 (at LXRβ full length (FL); in assay [1]; at LXRα full length (FL)) were less than 100 nM, 100 to 1000 nM and less than 100 nM, respectively.
With `Cc1cc(C(=O)N(Cc2ccc(-c3cccc(C(C)(C)C(=O)O)c3)cc2)Cc2ccc(C(F)(F)F)o2)c2ncccc2n1` [27/111], the EC50 – broadly, the concentration at which the effect is half-maximal – at LXRβ full length (FL) was less than 100 nM; in assay [1] it was 1000 to 10000 nM; at LXRα full length (FL) it was 100 to 1000 nM.
In the same order, the values of `Cc1ccc2nc(C)c(C)c(C(=O)N(Cc3ccc(-c4cccc(C(C)(C)C(=O)O)c4)cc3)Cc3ccc(C(F)(F)F)o3)c2c1` [27/54] are less than 100 nM, 100 to 1000 nM and less than 100 nM.
In the same order, the values of `COc1cc(-c2cccc(C(C)(C)C(=O)O)c2)ccc1CN(Cc1ccc(C(F)(F)F)o1)C(=O)c1c(C)c(C)nc2ccccc12` [27/104] are less than 100 nM, 100 to 1000 nM and less than 100 nM.
The corresponding values for `Cc1cc(C(=O)N(Cc2ccc(C(F)(F)F)o2)Cc2ccc(-c3cccc(C(C)(C)C(=O)O)c3)cc2Cl)c2ncccc2n1` [27/123] are less than 100 nM, 100 to 1000 nM and less than 100 nM.
As to `Cc1cc(C)c([N+](=O)[O-])c(C)c1C(=O)N(Cc1ccc(-c2cccc(C(C)(C)C(=O)O)c2)cc1)Cc1ccc(C(F)(F)F)o1` [27/46], the EC50 (at LXRβ full length (FL); in assay [1]; at LXRα full length (FL)) was less than 100 nM in each case.
As for `Cc1ccc2ccc(C)c(CN(Cc3ccc(-c4cccc(C(C)(C)C(=O)O)c4)cc3)Cc3ccc(C(F)(F)F)o3)c2c1` [27/20], the figures for the concentration for a half-maximal effect (EC50) (at LXRβ full length (FL); in assay [1]; at LXRα full length (FL)) were less than 100 nM, 100 to 1000 nM and less than 100 nM, respectively.
Turning to `CNc1nc(-c2cccc(C(C)(C)C(=O)O)c2)ccc1CN(Cc1ccc(C(F)(F)F)o1)C(=O)c1c(C)ccc2ccccc12` [Example 32, 2-Methyl-2-(3-(5-((2-methyl-N-((5-(trifluoromethyl)furan-2-yl)methyl)-1-naphthamido)methyl)-6-(methylamino)pyridin-2-yl)phenyl)propanoic acid], the EC50 was 100 to 1000 nM at LXRβ full length (FL), greater than 10000 nM in assay [1] and 100 to 1000 nM at LXRα full length (FL).
As for `Cc1ccc2cnccc2c1C(=O)N(Cc1ccc(-c2cccc(C(C)(C)C(=O)O)c2)cc1)Cc1ccc(C(F)(F)F)o1` [27/86], the EC50 (on LXRβ full length (FL); in assay [1]; on LXRα full length (FL)) was less than 100 nM each time.
Regarding `Cc1ccc2ccccc2c1C(=O)N(Cc1ccc(-c2cccc(C(C)(C)C(=O)O)c2)cc1)C1CCc2ccc(C(F)(F)F)cc21` (stereo not drawn) [27/5], the values for the concentration for a half-maximal effect (EC50) (at LXRβ full length (FL); in assay [1]; at LXRα full length (FL)) were less than 100 nM, 100 to 1000 nM and less than 100 nM, respectively.
As for `Cc1nc2cnccc2c(C(=O)N(Cc2ccc(-c3cccc(C(C)(C)C(=O)O)c3)cc2)Cc2ccc(C(F)(F)F)o2)c1C` [27/135], the figures for the EC50 (at LXRβ full length (FL); in assay [1]; on LXRα full length (FL)) were less than 100 nM, 100 to 1000 nM and less than 100 nM, respectively.
As to `Cc1ccc2ccccc2c1C(=O)N(CCc1cccc(Br)c1)Cc1ccc(-c2cccc(C(C)(C)C(=O)O)c2)cc1` [27/30], the EC50 was less than 100 nM on LXRβ full length (FL), 1000 to 10000 nM in assay [1] and 100 to 1000 nM on LXRα full length (FL).
In the same order, the values of `Cc1sc2ccccc2c1CN(Cc1ccc(-c2cccc(S(=O)(=O)CC(=O)O)c2)cc1)Cc1ccc(C(F)(F)F)o1` [7/6] are 100 to 1000 nM, 1000 to 10000 nM and 100 to 1000 nM.
The corresponding values for `O=C(O)CS(=O)(=O)c1cccc(-c2ccc(CN(Cc3ccc(C(F)(F)F)o3)C(=O)c3cccc4ccccc34)cc2)c1` [27/41] are 1000 to 10000 nM, 1000 to 10000 nM and 1000 to 10000 nM.
Consider `COCc1c(C)cc(C)c(CN(Cc2ccc(-c3cccc(C(C)(C)C(=O)O)c3)cc2)Cc2ccc(C(F)(F)F)o2)c1C` [27/71], for which the EC50 at LXRβ full length (FL) was less than 100 nM; in assay [1], 100 to 1000 nM; at LXRα full length (FL), less than 100 nM.
Turning to `CC(C)(C(=O)O)c1cccc(-c2ccc(CN(Cc3ccc(C(F)(F)F)o3)C(=O)c3cc(C4CC4)nc4ccccc34)cc2)c1` [27/129], the concentration for a half-maximal effect (EC50) at LXRβ full length (FL) is less than 100 nM; in assay [1], 100 to 1000 nM; on LXRα full length (FL), 100 to 1000 nM.
In the case of `COc1cc(-c2cncc(S(=O)(=O)CC(=O)O)c2)ccc1CN(Cc1ccc(C(F)(F)F)o1)C(=O)c1c(C)ccc2ccccc12` [27/60], the EC50 lay within 100 to 1000 nM on LXRβ full length (FL), 1000 to 10000 nM in assay [1] and 100 to 1000 nM on LXRα full length (FL).
As to `Cc1ccc2ccc(F)cc2c1C(=O)N(Cc1ccc(-c2cccc(C(C)(C)C(=O)O)c2)cc1)Cc1ccc(C(F)(F)F)o1` [27/53], the 50% effective concentration (EC50) (on LXRβ full length (FL); in assay [1]; at LXRα full length (FL)) was less than 100 nM in each case.
For the compound `Cc1cc(C)c(CN(Cc2ccc(-c3cccc(C(C)(C)C(=O)O)c3)cc2)Cc2ccc(C(F)(F)F)o2)c2c1CCC2` [27/33], the EC50 was less than 100 nM on LXRβ full length (FL), 100 to 1000 nM in assay [1] and less than 100 nM at LXRα full length (FL).
Consider `Cc1ccc2ccc(C(N)=O)cc2c1CN(Cc1ccc(-c2cccc(C(C)(C)C(=O)O)c2)cc1)Cc1ccc(C(F)(F)F)o1` [27/25], for which the concentration giving a half-maximal response (EC50) at LXRβ full length (FL) is less than 100 nM; in assay [1] it was 1000 to 10000 nM; on LXRα full length (FL), 100 to 1000 nM.
In the same order, the values of `Cc1c(CN(Cc2ccc(-c3cccc(C(C)(C)C(=O)O)c3)cc2)Cc2ccc(C(F)(F)F)o2)c2ccccc2[nH]c1=O` [27/22] are less than 100 nM, 100 to 1000 nM and 100 to 1000 nM.
In the same order, the values of `Cc1ccc2c(CN(Cc3ccc(-c4cccc(C(C)(C)C(=O)O)c4)cc3)Cc3ccc(C(F)(F)F)o3)c(C)ccc2c1` [27/21] are less than 100 nM, 100 to 1000 nM and less than 100 nM.
The corresponding values for `Cc1nc2cccnc2c(C(=O)N(Cc2ccc(-c3cccc(C(C)C(=O)O)c3)cc2)Cc2ccc(C(F)(F)F)o2)c1C` (stereo not drawn) [27/110] are less than 100 nM, 100 to 1000 nM and less than 100 nM.
Consider `COc1cc(-c2cccc(S(=O)(=O)CC(=O)O)c2)ccc1CN(Cc1ccc(C(F)(F)F)o1)C(=O)c1c(C)ccc2ccccc12` [27/61], for which the results for the EC50 (on LXRβ full length (FL); in assay [1]; on LXRα full length (FL)) were 100 to 1000 nM, 1000 to 10000 nM and 100 to 1000 nM, respectively.
On to `CC1=C(C(=O)N(Cc2ccc(-c3cccc(C(C)(C)C(=O)O)c3)cc2)Cc2ccc(C(F)(F)F)o2)c2ccccc2CC1` [27/95], for which the EC50 (at LXRβ full length (FL); in assay [1]; at LXRα full length (FL)) was less than 100 nM each time.
In the case of `CC(C)(C(=O)O)c1cccc(-c2ccc(CN(Cc3ccc(C(F)(F)F)o3)C(=O)c3c4c(nc5ccccc35)CCCC4)cc2)c1` [27/55], the EC50 is less than 100 nM on LXRβ full length (FL), 100 to 1000 nM in assay [1] and less than 100 nM at LXRα full length (FL).
On to `CCc1ccc2ccccc2c1CN(Cc1ccc(-c2cccc(C(C)(C)C(=O)O)c2)cc1)Cc1ccc(C(F)(F)F)o1` [27/52], for which the EC50 on LXRβ full length (FL) is less than 100 nM; in assay [1], 100 to 1000 nM; at LXRα full length (FL), less than 100 nM.
Regarding `Cc1ccc2ccccc2c1C(=O)N(Cc1ccc(-c2cccc(C(C)(C)C(=O)O)c2)cc1)Cc1ccc(C(C)(C)C)o1` [27/1], the EC50 at LXRβ full length (FL) was less than 100 nM; in assay [1], 1000 to 10000 nM; at LXRα full length (FL) it was 100 to 1000 nM.
Consider `Cc1ccc2ccccc2c1CN(Cc1ccc(-c2cccc([C@H](C)C(=O)O)c2)cc1)Cc1ccc(C(F)(F)F)o1` [27/73], for which the EC50 was less than 100 nM on LXRβ full length (FL), 100 to 1000 nM in assay [1] and less than 100 nM at LXRα full length (FL).
